The results in this text go back to patent US20240228542A1, “LYTIC DOMAIN FUSION CONSTRUCTS, CHECKPOINT INHIBITORS, AND METHODS OF MAKING AND USING SAME” (A28 Therapeutics Inc., priority 2020, published 2024).

The subject of one assay is ID8 ovarian cancer cells. Briefly: Cytokine and chemokine secretion by ID8 cells (array, RT-PCR, ELISA). Format: cell-based, murine. As for the experimental part:
Cytokine Array—Supernatant from cultured cells was stored at −20° C. for batch analyses to measure cytokines. The mouse cytokine array (R&D Systems, Inc.) was purchased and used to detect the secretion of 111 cytokines in the experiments groups. These Proteome Profiler Arrays were performed according to the manufacturer's protocol.
The effect of EP-100 on cytokines and chemokines was analyzed using a proteome profiler murine cytokine array in the CD8^+ T cell activation in ID8 ovarian cancer cells. […] LIF and CXCL10 secretion were decreased after treatment with EP-100 for 4 hours. LDL receptor secretion was increased by EP-100 at 2 hours and 12 hours, while IL1α, CCL20, VEGF, and IL33 were secreted after EP-100 treatment (FIG. 19 B). Among the cytokines, IL33 inhibited tumor growth and modified the tumor microenvironment. Using RT-PCR and ELISA the induction of IL33 through EP-100 was analyzed. IL33 mRNA expression was increased in 30 minutes after EP-100 treatment, and secretion was increased after 2 hours of EP-100 treatment, and this effect continued through 12 hours (FIGS. 19C and 19D). […] To determine the IL33 role in the tumor microenvironment, we tested the IL33 effect on T cell differentiation in vitro. We isolated naïve CD4^+ T cells from mouse […], and further cultured for 5 days in CD3 and CD28, and mouse IL-2 containing media to differentiated CD8^+ T cell. LHRH-R mRNA expression and EP-100-induced cytoic effect was lower in both naïve T cells and CD8^+ T cells than in ID8 cells (FIGS. 20A and 20B).
In general terms: In an ELISA, binding on a coated surface is turned into a signal by an enzyme label.

A further assay concerns MDA-MB-435 cells. Briefly: Fluorescence microscopy of MDA-MB-435 cells. Format: cell-based, human. The settings on record: 10 μM, 5 minutes exposure. The procedure:
In brief, human melanoma cells (MDA-MB-435, passage #252) were seeded onto culture dishes. The following markers were introduced prior to adding EP-100; DRAQ5™(Alexis Corporation)—blue—was used for staining of the nucleus and Mito Tracker® Red CMXRos (M7512) (Molecular Probes, Inc. OR) were applied for visualizing intact mitochondria. Cell membranes were stained with wheat germ alexa fluor green conjugates (Molecular Probes, Inc. OR).
Cells were loaded first with Mitotracker dye, according to the manufacturer's recommendation. Phor 18-LHRH (338613) reconstituted in saline was added at a final concentration of 10 μM and incubated for 5-10 minutes. Culture dishes with saline only served as controls. The supernatant was removed, and the remaining cells prepared for fluorescence microscopy imaging.

The test system of a further assay is AN3-CA. Briefly: Cytotoxicity in AN3-CA endometrial cancer cells. The class given is cell-based. The settings on record: AN3-CA endometrial cancer cell line; read-out: IC50 in Human Cancer Cell Lines. As for the experimental part:
MDA-MB-435S.luc cells were grown in Leibovitz's L 15 medium, 10% fetal bovine serum, 0.01 mg/ml bovine insulin, 100 IU/ml penicillin, 100 microg/ml streptomycin. The cells were cultured in tight closed flasks. The incubations were conducted using 96 well plates at 10,000 cells per well. Cells were typically seeded into 96 well plates and media was replaced after 48 hours of incubation. Each assay was conducted at increasing concentrations of 0, 0.001, 0.01, 0.05, 0.1, 0.5, 1, 2, 5, 10 and 100 micromolar doses of lytic peptide-binding domain conjugate. Each lytic peptide-binding domain conjugate provided in lyophilized form and was freshly dissolved in saline and added to cells. The duration of incubation was typically 24 h, and cell viability assays were conducted using formazan conversion assays (MTT assay). Controls contained saline or 0.1% triton as reference for 0 and 100% cell death, respectively.
To ascertain the IC50 of various fusion constructs on different human cancer cell lines compared to cisplatinum, IC50 of fusion constructs were evaluated as in Table 3.

In the next assay the test system is ID8. Kind of assay: Cytotoxicity in ID8 murine ovarian cancer cells (24 h). Format: cell-based. The settings on record: ID8, 24 h; read-out: In vitro activity (IC50). The procedure: Murine ovarian cancer cell lines (ID8, IG10, IF5, and 2Cl2) were grown in RPMI 1640 media with 10% Fetal Bovine Serum. Cells were typically seeded (3000 cells per well) into 96 well plates and media was replaced after 48 hours of incubation. […] Phor18-LHRH was provided in lyophilized form was dissolved in saline and added to cells. The duration of incubation was 24 h at 37° C. Cell viability was assessed after 24 hours using a luminometric assays (Promega, CellTiter-0Glo 2.0, G9243). Controls contained saline or 0.1% triton as reference for 0 and 100% cell death, respectively.
Data were processed and analyzed using GraphPad Prism version 7.00 for Windows (GraphPad Software, San Diego California). Statistical analysis for significance was determined by a two-tailed Student's T-test. Each study was conducted to achieve an […] of at least 6.
In vitro activities were expressed as IC50 values for each cell line, time point and compound tested that were calculated using the Hill equation (Graph Pad Prizm software).

The test system of assay [1] is EMT-6 murine mammary carcinoma. Briefly: EMT-6 murine mammary carcinoma syngeneic model, tumor growth delay. Format: in vivo, BALB/c mice. Conditions: for median TTE: control 16.5 days. As for the experimental part: The present study consisted of six efficacy groups (n=10) and three sampling groups (n=5) of female BALB/c mice implanted with EMT-6 tumor cells (mean volume: 61-85 mm^3). Dosing was initiated on Day (D) 1 of the study, unless otherwise noted. […] Anti-CTLA-4 was administered i.p. at 100 μg/animal on Day 2 and 50 μg/animal on Day 5 and Day 8.
Group 1 mice served as controls and received i.v. saline (vehicle), qod×to end. Group 2 received anti-CTLA-4. Group 3 received Phor 18-LHRH at 0.4 μg/animal qod×8 followed by 20 μg/animal qod to end (starting on Day 17). […] Group 5 received Phor 18-LHRH at 0.4 μg/animal q.o.d.×8 followed by 20 μg/animal qod to end (starting on Day 17) in combination with anti-CTLA-4.
The study endpoint was a tumor volume of 2000 mm^3 or 45 days, whichever came first. Tumor measurements were taken twice weekly until D45 with individual animals exiting the study upon reaching the tumor volume endpoint.
Efficacy was determined from tumor growth delay (TGD), the increase in median time-to-endpoint (TTE) in treated versus control mice, and from comparison of survival curves using logrank analysis. Response was additionally evaluated based on the number of study survivors, partial regression (PR) and complete regression (CR) responses, and logrank significance of differences in survival. Tolerability of the various treatments was assessed by body weight (BW) measurements and frequent observation for clinical symptoms and treatment-related (TR) side effects.
Four sampling groups consisting of 5 animals each were included in this study: saline controls. […] Animals in these groups were sacrificed on day 17, tumors were excised, formalin fixed and paraffin embedded to obtain H&E stained sections for histological evaluation of the tumors. Tumor samples were collected for analysis and stained with hematoxylin & cosin for pathological evaluation.

Where [2] appears, read: Phor18-LHRH at 0.4 μg and 20 μg/animal (alone or with anti-CTLA-4).
Where [3] appears, read: Phor18-LHRH at 10 μg and 60 μg/animal (alone or with anti-CTLA-4).

The IC50 is the concentration that inhibits the measured activity by half. “KFAKFAKKFAKFAKKFAKQHWSYGLRPG [Phor18-LHRH]”: the “time to increased IL33 secretion” value with ID8 ovarian cancer cells (ID8 cells, ELISA, continued through 12 hours) was found to be 2 h. Also, in the assay with ID8 ovarian cancer cells (ID8 cells, RT-PCR), the “time to increased IL33 mRNA expression” value turned out to be 30 min. Further, the “secretion of cytokines and chemokines (array)” value in the assay on ID8 ovarian cancer cells (ID8 cells, LIF, CXCL10, IL1α, CCL20, VEGF, IL33, LDL receptor) is listed as “increased secretion of various molecules”. Further, the IL33 secretion result in the assay on ID8 ovarian cancer cells (in vitro, FIG. 19D) is recorded as “IL33 secretion was increased by EP-100”. In addition, the “plasma membrane, fluorescence microscopy” value in the assay with MDA-MB-435 cells is reported as “disintegration of the plasma membrane”. Moreover, the IC50 with AN3-CA amounted to 3800 ± 80 nM; with ID8, 1370 nM. Besides, the TGD in assay [1] (setting [2]) is reported as 6%; in assay [1] (setting [3]), 5%. Further, the “median TTE” value is 17.5 days in assay [1] (setting [2]) and 17.4 days in assay [1] (setting [3]). In assay [1] (animals sacrificed on day 17), the “histological evaluation of tumors” value was “inflammatory immune cell infiltration and necrosis”.
